From patent publication US4889906A, “Amine salts of 1,4,2-oxazaphospholidine-4-acetic acid, 2-alkoxy-2-oxides” (Monsanto Company, priority 1988, dated 1989)
“And” between values parts separate entries of the source, which are not always exact repeats. Identical values can stand only once. Counter-ions that a name gives are not always drawn.

Key:
Assay type in all cases: in vivo
[1] = system: Cocklebur; assay: Post-emergent herbicide activity, greenhouse; settings: 5.6 g/m^2
Excerpt: (§1) Top soil was placed in pans having holes in the bottom and compacted to a depth of 0.95 to 1.27 cm from the top of the pan. A predetermined number of seeds of each of several plant species or vegetative propagules for perennial plant species were placed on the soil and pressed into the soil surface. The seeds or propagules were covered with soil and leveled. The pans were then placed on a bench in the greenhouse and watered as needed for germination and growth. After the plants reached the desired age (2 to 3 weeks) each pan, except the control pans, was removed to a spraying chamber and sprayed by means of an atomizer. In the spray solution, an emulsifying agent was added to give a spray solution which contains about 0.4% by volume of the emulsifier. The spray solution contained a sufficient amount of the compound of Example 1 to give an application rate of the active ingredient of 2.8 g/m^2 (25 lbs. per acre) and 5.6 g/mz (50 lbs. per acre), while applying a total amount of solution equivalent to 187 ml/m^2 (200 gal per acre). The pans were returned to the greenhouse and watered as before, and the injury to the plants as compared to those in control pans was observed after 14 days after spraying, and again, 27 days after spraying.

[2] = system: Pennsylvania Smartweed; assay: Post-emergent herbicide activity, greenhouse; settings: 5.6 g/m^2
Excerpt: as §1

[3] = system: Morningglory; assay: Post-emergent herbicide activity, greenhouse; settings: 5.6 g/m^2
Excerpt: as §1

[4] = system: Canada Thistle; assay: Post-emergent herbicide activity, greenhouse; settings: 5.6 g/m^2
Excerpt: as §1

[5] = system: Common Lambsquarters; assay: Post-emergent herbicide activity, greenhouse; settings: 5.6 g/m^2
Excerpt: as §1

[6] = system: Quackgrass; assay: Post-emergent herbicide activity, greenhouse; settings: 5.6 g/m^2
Excerpt: as §1

[7] = system: Rhizone Johnsongrass; assay: Post-emergent herbicide activity, greenhouse; settings: 5.6 g/m^2
Excerpt: as §1

[8] = system: Barnyardgrass; assay: Post-emergent herbicide activity, greenhouse; settings: 5.6 g/m^2
Excerpt: as §1

[9] = system: Yellow Nutsedge; assay: Post-emergent herbicide activity, greenhouse; settings: 5.6 g/m^2
Excerpt: as §1

[10] = system: Velvetleaf; assay: Post-emergent herbicide activity, greenhouse; settings: 5.6 g/m^2
Excerpt: as §1

[11] = system: Downy Brome; assay: Post-emergent herbicide activity, greenhouse; settings: 5.6 g/m^2
Excerpt: as §1

[12] = system: fescue (Kentucky bluegrass No. 31); assay: Plant growth regulating activity, greenhouse; settings: 0.56 g/m^2 (5 lbs. per acre), two weeks
Method: Established stands of fescue (Kentucky bluegrass No. 31) in pots having an area of about 100 cm (16 square inches) were trimmed to a uniform height. Duplicate pots were removed to a spraying chamber and sprayed by means of an atomizer as in Example 3. The application rate of the active ingredient was 0.56 g/m^2 (5 lbs. per acre) while applying a total amount of solution equivalent to 187 ml/m^2 (200 gal/acre). The pots were returned to the greenhouse and watered with the controls on a daily basis. After two weeks, the height of the grass was measured.

[13] = system: plants; assay: Biological activity, greenhouse tests according to Examples 3 and 4; settings: according to the procedure of Examples 3 and 4
Excerpt: as §1, with “The pans were returned to the greenhouse and watered as before, and the injury to the plants as compared to those in control pans was observed after 14 days after spraying, and again, 27 days after spraying.” left out
Established stands of fescue (Kentucky bluegrass No. 31) in pots having an area of about 100 cm (16 square inches) were trimmed to a uniform height. […] After two weeks, the height of the grass was measured. […]

COP1(=O)CN(CC(=O)O)CO1 (stereo not drawn) [Example 1, triethylamine salt of 1,4,2-oxazaphospholidine-4-acetic acid, 2-methoxy-2-oxide]
Plant Response After 14 Days ([1]; 14 days after spraying): 1 (25-49% inhibition)
Plant Response After 27 Days ([1]; 27 days after spraying): 1 (25-49% inhibition)
Plant Response After 14 Days ([2]; 14 days after spraying): 0 (0-24% inhibition)
Plant Response After 27 Days ([2]; 27 days after spraying): 0 (0-24% inhibition)
Plant Response After 14 Days ([3]; 14 days after spraying): 1 (25-49% inhibition)
Plant Response After 27 Days ([3]; 27 days after spraying): 1 (25-49% inhibition)
Plant Response After 14 Days ([4]; 14 days after spraying): 0 (0-24% inhibition)
Plant Response After 27 Days ([4]; 27 days after spraying): 0 (0-24% inhibition)
Plant Response After 14 Days ([5]; 14 days after spraying): 0 (0-24% inhibition)
Plant Response After 27 Days ([5]; 27 days after spraying): 0 (0-24% inhibition)
Plant Response After 14 Days ([6]; 14 days after spraying): 0 (0-24% inhibition)
Plant Response After 27 Days ([6]; 27 days after spraying): 1 (25-49% inhibition)
Plant Response After 14 Days ([7]; 14 days after spraying): 0 (0-24% inhibition)
Plant Response After 27 Days ([7]; 27 days after spraying): 0 (0-24% inhibition)
Plant Response After 14 Days ([8]; 14 days after spraying): 1 (25-49% inhibition)
Plant Response After 27 Days ([8]; 27 days after spraying): 1 (25-49% inhibition)
Plant Response After 14 Days ([9]; 14 days after spraying): 0 (0-24% inhibition)
Plant Response After 27 Days ([9]; 27 days after spraying): 1 (25-49% inhibition)
Plant Response After 14 Days ([10]; 14 days after spraying): 0 (0-24% inhibition)
Plant Response After 27 Days ([10]; 27 days after spraying): 0 (0-24% inhibition)
Plant Response After 14 Days ([11]; 14 days after spraying): 0 (0-24% inhibition)
Plant Response After 27 Days ([11]; 27 days after spraying): 0 (0-24% inhibition)
average growth rate of treated fescue relative to controls [12]: 43 % of the controls
growth of treated grass over two-week period ([12]; duplicate pots, control pots grew average 199.58 mm): 80 mm and 90 mm
discoloration or other sign of phytotoxicity ([12]; fescue): did not show any discoloration or other sign of phytotoxicity

COP1(=O)CN(CC(=O)O)CO1 (stereo not drawn) [Example 5, Triisopropylamine Salt of 1,4,2-Oxazaphospholidine-4-Acetic Acid, 2-Methoxy-2-Oxide]
biological activity (post-emergent herbicide and plant growth regulating), in words [13]: Satisfactory results are achieved

COP1(=O)CN(CC(=O)O)CO1 (stereo not drawn) [Example 2, 1,4,2-oxazaphospholidine-4-acetic acid, 2-alkoxy-2-oxide]
biological activity (post-emergent herbicide and plant growth regulating), in words [13]: Satisfactory results are achieved
